Source: patent publication US11351130B2, “Prevention and reversal of inflammation induced DNA damage” (Indiana University Research and Technology Corporation, priority 2017, dated 2022)

System: APE1
Assay: APE1 expression (immunoblotting) after siRNA
Type: cell-based, rat
Details: 100 nM siRNA
Experimental: Small interfering RNAs to APE1 (APE1siRNA) and scrambled siRNA (SCsiRNA) controls were used to decrease APE1 protein expression in sensory neuronal cell cultures and as controls, respectively, as described previously (Vasko et al., 2005, Jiang et al., 2008a). On day 3 in culture, the growth media was replaced with 0.5 ml of Opti-MEM 1 media containing 100 nM of APE1siRNA (5′-[…]-3′ (SEQ ID NO:1)) or SCsiRNA (5′-[…]-3′(SEQ ID NO:2)); (Vasko et al., 2005)) and 10 μl of the transfecting reagent, Neuroporter. On the next day, 0.5 ml of the growth media without antibiotics was added to each well, and after an additional 24 hours the media containing siRNA was replaced with normal growth media.
Tissues or cells were harvested, lysed in RIPA buffer (Santa Cruz Biotechnology; Santa Cruz, Calif., USA), sonicated, and cleared of cellular debris by centrifuging at 4000 RPM for 2 minutes. Protein was quantified using Lowry assay, and electrophoresed in a 12% SDS-polyacrylamide gel. […] Antibody binding was detected following appropriate secondary antibody methods using chemiluminescence. The density of the bands was measured using Quantity One software from Bio-Rad (Hercules, Calif.) and data expressed as density normalized to vinculin.

APE1siRNA: Small interfering RNA to APE1, 5′-GUCUGGUAAGACUGGAGUACC-3′ (SEQ ID NO:1) (chemistry not given here)
APE1 expression relative to wildtype expression: ~20%
